Experimental data reported in patent US12233060B2, “Inhibitors of Ataxia-Telangiectasia Mutated and Rad3-related protein kinase (ATR) for use in methods of treating cancer” (THE INSTITUTE OF CANCER RESEARCH: ROYAL CANCER HOSPITAL, priority 2016, dated 2025).

Key:
[1] = tested on: HCT116 ARID1A−/− xenografts; test: In vivo efficacy, HCT116 ARID1A−/− subcutaneous xenografts; set-up: species or system mice
Protocol: (§1) FIG. 3. In vivo ARID1A/ATR synthetic lethality. A. Schematic of VX-970 therapy experiment in mice bearing established HCT116 ARID1A^+/+ and ARID1A^−/− xenografts. Cells were inoculated subcutaneously into nude mice and tumors allowed to establish for 10 days. Mice were then randomized to treatment regimens of either VX-970 (60 mg/kg, 4× weekly by oral gavage) or vehicle. Mice were then treated for a subsequent 40 days. Tumor volume was monitored twice weekly. B. Relative tumor volume plot from (A) showing efficacy of VX-970 and selectivity for ARID1A^−/− xenografts* p=0.024, ANOVA. C. Schematic of tumor incidence experiment in mice with non-established HCT116 ARID1A^+/+ and ARID1A^−/− xenografts. Mice were inoculated with cells as before, randomized and then treated with VX-970. VX-970 or vehicle treatment was initiated on the day of cell implantation. Tumor volume was monitored twice weekly and overall tumour incidence was assessed 40 days later. D. Bar chart of incidence 40 days after implantation of HCT116 ARID1A^+/+ and ARID1A^−/− cells. Each group contained 15 animals and fractions above bars indicate the number of animals in which a measurable xenograft formed. *p=0.027 Fisher's exact test. E and F. Tumor growth in experiment described in (C). *p=0.015 ANOVA. G. VX-970 dose response curves from TOV21G (ARID1A mutant) and RMG1 (ARID1A wildtype) cells. Cells were exposed to VX-970 for 5 days. […] PARP-1, cleaved PARP-1 (85 kDa fragment) and tubulin were detected by western blot. […] Caspase3/7 activity was assessed using Caspase-Glo and total cellular viability was estimated using CellTitre-Glo. Luminescence ratios for Caspase-Glo (i.e. apoptotic cells) and CellTitre-Glo (ie viable cells) was determined for each dose and normalized to DMSO treated samples. *Student's t-test, p<0.05. […]
In vivo efficacy studies were performed using HCT116 […], HCT116 ARID1A^−/− and TOV21G cells injected subcutaneously in the flank of female CD-1 Nude mice. […] Tumours were measured manually by calliper trice weekly and animals were sacrificed when tumours reached >15 mm in any direction.

[2] = tested on: TOV21G (ARID1A mutant) and RMG1 (ARID1A wildtype) cells; test: Five-day dose response in OCCC cell lines TOV21G and RMG1; assay type: cell-based, human; settings: 5 days exposure
Protocol: as §1, with “VX-970 or vehicle treatment was initiated on the day of cell implantation.” left out, “later.” for “later. D. Bar chart of incidence 40 days after implantation of HCT116 ARID1A^+/+ and ARID1A^−/− cells. Each group contained 15 animals and fractions above bars indicate the number of animals in which a measurable xenograft formed. *p=0.027 Fisher's exact test. E and F. Tumor growth in experiment described in (C). *p=0.015 ANOVA. G. VX-970 dose response curves from TOV21G (ARID1A mutant) and RMG1 (ARID1A wildtype) cells. Cells were exposed to VX-970 for 5 days.”
Short-term survival assays were performed in 384-well plates. […] Colonies were counted manually. […]

[3] = tested on: HCT116 ARID1A+/+ and ARID1A−/− cells; test: Cell cycle analysis of synchronized cells (G2/M fraction, FACS); assay type: cell-based, human; settings: double thymidine block, release into VX-970 (500 nM)
Protocol: FIG. 5. ATRi effect on cell cycle progression, chromosomal instability, DNA damage and apoptosis. A. Barchart illustrating G2/M fraction in HCT116 ARID1A^+/+ and ARID1A^−/− cells synchronized in G1/early S phase by double thymidine block and released into fresh media containing DMSO or VX-970 (500 nM). The percentage of cells in G2/M was measured by FACS following PI staining. […] Cells were stained with DAPI. A minimum of 50 anaphases were scored in 3 biological replicate experiments. *p=0.023, Student's t-test. C. Bar chart illustrating frequency of anaphase bridges in TOV21G cells exposed to VX-970 (0.5 uM) or DMSO for 8 hours prior to fixation. Experiment performed as for (B). p=0.006 Student's t-test. D. Mitotic spread images from HCT116 ARID1A^+/+ and ARID1A^−/− cells following exposure to either DMSO or VX-970 (1 uM). Scale bar represents 20 um. E. Bar chart illustrating extent of chromosomal abnormalities in HCT116 ARID1A^+/+ and ARID1A^−/− cells exposed to VX-970 (1 uM). *p<0.05, Student's t-test. […]
Cells were plated at a density of 2×10^5 cells per well of a six-well plate and incubated for 24 hours after which ATRi or 0.1% DMSO was added for the indicated period of time. […] Samples were analyzed on a BD LSR II flow cytometer using BD FACSDiva software (BD Biosciences). […]

## CNCc1ccc(-c2cc(-c3nc(-c4ccc(S(=O)(=O)C(C)C)cc4)cnc3N)on2)cc1 [VX-970, 5-[4-(Isopropylsulfonyl)phenyl]-3-(3-{4-[(methylamino)methyl]phenyl}-1,2-oxazol-5-yl)-2-pyrazinamine]
[1]; 60 mg/kg, 4x weekly oral gavage, 40 days
  growth of established ARID1A−/− xenografts: significantly inhibited the growth
[1]; non-established xenograft experiment, p=0.015 ANOVA
  growth of ARID1A−/− tumours under continued treatment: dramatically slowed the growth
[1]; treatment from day of cell implantation, incidence 40 days later, 15 animals per group
  frequency of ARID1A−/− tumour formation: 27%
[2]
  sensitivity of TOV21G vs RMG1: more sensitive to both VE-821 and VX-970
[3]
  G2/M delay in ARID1A−/− cells: abrogated the G2/M delay
